Laboratory results taken from PMC10380385, “Synthesis, In Vitro, and In Vivo Investigations of Pterostilbene-Tethered Analogues as Anti-Breast Cancer Candidates” (International Journal of Molecular Sciences, 2023).
“And” between values parts separate entries of the source, which are not always exact repeats. Identical values can stand only once.

Tests used:
MCF-7 cells [1] = test: Annexin V-FITC/PI apoptosis flow cytometry, MCF-7; assay type: cell-based, human
Description: (§1) MDA-MB-231 and MCF-7 cells (3 × 10^5 cells/well) were seeded into 6-well plates. After that, the cells were treated with 2L (0, 10 μM) for 24 h. Cells were harvested, washed repeatedly with cold phosphate-buffered saline (PBS), and resuspended in 195 μL of binding buffer. Then, 4 μL annexin V-FITC reagent (Beyotime) and 8 μL propidium iodide (PI, Beyotime) were added to the samples and gently mixed. After incubation for 15 min in the dark at room temperature, the stained cells were immediately detected by a FACScan flow cytometer (BD Biosciences, San Jose, CA, USA) and analyzed with the annexin V-FITC/PI apoptosis method.

MCF-7 cells [2] = test: Intracellular ROS, DCFH-DA, MCF-7; assay type: cell-based, human; details: MCF-7, 2L 24 h, vs control
Description: The Reactive Oxygen Species Assay Kit was used to measure intracellular ROS levels. MDA-MB-231 and MCF-7 cells (6 × 10^4 cells/well) were seeded onto 24-well plates and treated with 2L (0, 10 μM) for 24 h. Subsequently, the cells were washed with PBS and stained with dichlorodihydrofluorescein diacetate (DCFH-DA, 10 μM) at 37 °C for 20 min in the dark. Following three washes with serum-free DMEM, the fluorescence alteration was photographed using a fluorescence microscope.
MDA-MB-231 and MCF-7 cells were plated in 6-well plates with a density of 3 × 10^5 cells/well. After exposure to 2L for 24 h, the cells were incubated with 10 μM DCFH-DA at 37 °C for 20 min in the dark. Later, the cells were slightly washed three times with serum-free DMEM and centrifuged (1000 rpm, 5 min). The collected cells were resuspended in PBS and loaded into a flow cytometer.

MCF-7 cells [3] = test: MTT anti-proliferative assay, MCF-7; assay type: cell-based; details: Homo sapiens, MCF7, 48 h
Description: (§2) The in vitro anti-proliferative activity of all synthesized analogues against MDA-MB-231 and MCF-7 cells was tested using the 3-(4,5-dimethylthiazol-2-yl)-[…] (MTT) method. […] Usually, Dox has been used as a positive control in many basic studies, especially drug screening assay. […] In the meantime, the cytotoxic activity of 2K–2N, PTE, and Dox against MCF-10A (human breast epithelial cell line) was examined. […] By contrast, the substitution of a saturated six-membered nitrogen heterocyclic ring on the side chain is extremely favorable for enhancing anti-BC efficacy (2L–2N vs. 1, PTE, 2A–2J). Based on the preceding analysis, analogue 2L was selected as the most promising anti-BC agent and used in the follow-up study.
(§3) The human breast cancer cell lines MDA-MB-231 and MCF-7 were purchased from the Chinese Academy of Science and cultured in Dulbecco’s modified Eagle’s medium (DMEM, Gibco, New York, NY, USA) containing 10% fetal bovine serum (FBS), 2 mM L-glutamine, 100 U/mL penicillin, and 100 μg/mL streptomycin. Then, the cells were maintained in a humidified incubator at 37 °C in the presence of 5% CO2.
(§4) The MTT assay was used to test the effect of PTEs on cell viability. The MDA-MB-231 (3 × 10^3 cells/well) and MCF-7 (4 × 10^3 cells/well) cells were seeded in a 96-well plate and cultured at 37 °C in a 5% CO2 incubator overnight. Afterwards, the medium was replaced with different concentrations of the title compounds (1, 3, 10, 30, and 100 μM). After incubation for 48 h, 10 μL of MTT solution (5 mg/mL) was added to each well and incubated for another 4 h. The optical density (OD) of the samples was measured using a microplate reader (Biotek, Burlington, VT, USA) at 570 nm. The inhibition rate (%) = [A570 (control) − A570 (compound)]/A570 (control) × 100%. The IC50 values were calculated using SPSS software version 17.0 (SPSS Inc., Chicago, IL, USA).

MDA-MB-231 cells [4] = test: Annexin V-FITC/PI apoptosis flow cytometry, MDA-MB-231; assay type: cell-based, human
Description: as §1

MDA-MB-231 cells [5] = test: MTT anti-proliferative assay, MDA-MB-231; assay type: cell-based; details: Homo sapiens, 48 h
Description: as §2, §3, §4

MCF-7 cells [6] = test: Mitochondrial membrane potential JC-1 assay, MCF-7; assay type: cell-based, human; details: MCF-7, 24 h, flow cytometry
Description: The MMP was assayed using a JC-1 assay kit (Beyotime, Shanghai, China) according to the manufacturer’s instructions. In brief, MDA-MB-231 and MCF-7 cells were plated in 24-well plates at a density of 6 × 10^4 cells per well. After intervention with 2L (0, 10 μM) for 24 h, the cells were washed once with PBS. Cell culture solution (0.5 mL) and JC-1 working solution (0.5 mL) were successively added, mixed well, and incubated at 37 °C for 20 min in the dark. After washing twice with 1 × JC-1 staining buffer, the cells were resuspended in fresh culture medium. The graphical results were observed under a fluorescence microscope.
MDA-MB-231 and MCF-7 cells were incubated in 6-well plates at a density of 3 × 10^5 cells per dish and exposed to 2L for 24 h. Cell culture media (1 mL) and JC-1 staining working solution (1 mL) were added, thoroughly mixed, and incubated at 37 °C for 20 min. After washing twice with 1 × JC-1 staining buffer, the cells were collected and resuspended in 500 μL JC-1 staining buffer and then instantly analyzed using a flow cytometry.

[7] = tested on: MCF-10A (human breast epithelial cell line); test: Cytotoxic activity against MCF-10A; assay type: cell-based; details: cytotoxicity, normal breast epithelial cells
Description: as §2

MDA-MB-231 cells [8] = test: DNA content / cell cycle of PI-stained cells by flow cytometry, MDA-MB-231; assay type: cell-based, human; details: MDA-MB-231, 10.0 μM
From the text: It is commonly acknowledged that […] DNA fragmentation is a crucial hallmark of cell apoptosis. Next, we assessed the influence of 2L on the DNA content of PI-stained BC cells using flow cytometry. […] In turn, treatment with 2L led to an apparent enhancement of the number of MCF-7 cells, from 51.7% to 63.0%. […] An augmentation of DNA distribution in the SubG1 peak was representative of the occurrence of apoptosis in 2L-exposed groups, which further confirmed that 2L could induce the apoptosis of BC cells. In addition, the quantitative analysis of DNA distribution for the subG1, G0/G1, S, and G2/M phases appeared to show similar alterations (Figure 4B,D).

**Q.** Which “apoptosis ratio with NAC” value (MCF-7 cells [1]; MCF-7, 2L 10 μM + 5 mM NAC) does the source give for COc1cc(/C=C/c2ccc(OCCCN3CCCCC3)cc2)cc(OC)c1 [Compound 2L, (E)-1-(3-(4-(3,5-dimethoxystyryl)phenoxy)propyl)piperidine] here?
**A.** Its value is 6.7%.

**Q.** What about the “apoptosis ratio with Z-VAD-FMK” value (MCF-7 cells [1]; MCF-7, 2L 10 μM + Z-VAD-FMK 20 μM) of the same compound?
**A.** The value was 6.5%.

**Q.** And the “apoptotic percentage (early and late)” value (MCF-7 cells [1]; MCF-7, 2L 10 μM, 24 h)?
**A.** The value was 14.0% and 14.5% and 12.2%.

**Q.** And the “mean ROS-associated fluorescence intensity” value (MCF-7 cells [2])?
**A.** The value was “greatly increased”.

**Q.** What about the IC50 (MCF-7 cells [3]) of the same compound?
**A.** The IC50 was 11.7 ± 0.55 µM.

**Q.** What about the “apoptosis ratio with NAC” value (MDA-MB-231 cells [4]; MDA-MB-231, 2L 10 μM + 5 mM NAC) of the same compound?
**A.** Its value is 8.8%.

**Q.** And the “apoptosis ratio with Z-VAD-FMK” value (MDA-MB-231 cells [4]; MDA-MB-231, 2L 10 μM + Z-VAD-FMK 20 μM)?
**A.** The value was 6.2%.

**Q.** What about the “apoptotic percentage (early and late)” value (MDA-MB-231 cells [4]; MDA-MB-231, 2L 10 μM, 24 h) of the same compound?
**A.** The value was 12.7% and 16.1% and 13.1%.

**Q.** What about the IC50 (MDA-MB-231 cells [5]) of the same compound?
**A.** Its IC50 is 10.4 ± 0.4 µM.

**Q.** And the “ΔΨm level after 2L” value (MCF-7 cells [6])?
**A.** The value was 85.0%.

**Q.** And the IC50 [7]?
**A.** Its IC50 is 68.9 ± 0.93 µM.

**Q.** What about the “percentage of cells in subG1” value (MDA-MB-231 cells [8]) of the same compound?
**A.** Its value is 7.99%.

**Q.** What about the “proportion of cells in G0/G1 phase” value (MDA-MB-231 cells [8]) of the same compound?
**A.** Its value is 61.7%.
